Data reported in patent publication US7638535B2, “4-(aminomethyl)-piperidine benzamides as 5HT4-antagonists” (Janssen Pharmaceutica N.V., priority 2003, dated 2009).

Tests used:
[1] = biological target: T1, h5-HT4b (Homo sapiens, UniProt Q13639); experiment: 5HT4 antagonism: [3H]GR113808 binding to membranes of h5-HT4b-HEK 293 clone 9 cells; details: displacement of [3H]GR113808 0.1 nM, h5-HT4b-HEK 293 membranes, 30 min at 25° C.; read-out: pIC50 (5HT4 antagonistic data) (converted)
T1 construct: expressed in transfected cells; host or cells: HEK 293 (clone 9), membrane preparation
In short: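 Membranes from h5-HT4b-HEK 293 clone 9 cells were incubated with [3H]GR113808 (0.1 nM as added) in 50 mM HEPES-NaOH pH 7.4 for 30 min at 25 °C. Non-specific binding was defined with a 5-HT4 agonist. Bound radioligand was separated by filtration over PEI-soaked GF/B filters.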

[2] = Metabolic stability: % metabolism after 60 minutes incubation with active liver microsomes; format: in vitro ADME; details: compound 5 μM, microsomes 1 mg/ml, NADPH-generating system, 60 minutes at 37 degrees Celsius; for % metabolised compound (comparative structures of WO-00/37461): compound numbers of WO-00/37461
Description: Sub-cellular tissue preparations were made according to Gorrod et al. (Xenobiotica 5:453-462, 1975) by centrifugal separation after mechanical homogenization of tissue. Liver tissue was rinsed in ice-cold 0.1 M Tris-HCl (pH 7.4) buffer to wash excess blood. Tissue was then blotted dry, weighed and chopped coarsely using surgical scissors. The tissue pieces were homogenized in 3 volumes of ice-cold 0.1 M phosphate buffer (pH 7.4).
Tissue homogenates were centrifuged at 9000×g for 20 minutes at 4° C. The resulting supernatant was stored at −80° C. and is designated ‘S9’.
The S9 fraction can be further centrifuged at 100.000×g for 60 minutes (4° C.). The resulting supernatant was carefully aspirated, aliquoted and designated ‘cytosol’. The pellet was re-suspended in 0.1 M phosphate buffer (pH 7.4) in a final volume of 1 ml per 0.5 g original tissue weight and designated ‘microsomes’.
All sub-cellular fractions were aliquoted, immediately frozen in liquid nitrogen and stored at −80° C. until use.
For the samples to be tested, the incubation mixture contained PBS (0.1M), compound (5 μM), microsomes (1 mg/ml) and a NADPH-generating system (0.8 mM glucose-6-phosphate, 0.8 mM magnesium chloride and 0.8 Units of glucose-6-phosphate dehydrogenase). Control samples contained the same material but the microsomes were replaced by heat inactivated (10 minutes at 95 degrees Celsius) microsomes. Recovery of the compounds in the control samples was always 100%.
The mixtures were preincubated for 5 minutes at 37 degrees Celsius. The reaction was started at time point zero (t=0) by addition of 0.8 mM NADP and the samples were incubated for 60 minutes (t=60). The reaction was terminated by the addition of 2 volumes of DMSO. Then the samples were centrifuged for 10 minutes at 900×g and the supernatants were stored at room temperature for no longer as 24 hours before analysis. All incubations were performed in duplo. Analysis of the supernatants was performed with LC-MS analysis. Elution of the samples was performed on a Xterra MS C18 (50×4.6 mm, 5 μm, Waters, US). An Alliance 2790 (Supplier: Waters, US) HPLC system was used. Elution was with buffer A (25 mM ammoniumacetate (pH 5.2) in H2O/acetonitrile (95/5)), solvent B being acetonitrile and solvent C methanol at a flow rate of 2.4 ml/min. The gradient employed was increasing the organic phase concentration from 0% over 50% B and 50% C in 5 min up to 100% B in 1 minute in a linear fashion and organic phase concentration was kept stationary for an additional 1.5 minutes. Total injection volume of the samples was 25 μl.
A Quatro triple quadrupole mass spectrometer fitted with and ESP source was used as detector. The source and the desolvation temperature were set at 120 and 350° C. respectively and nitrogen was used as nebuliser and drying gas. Data were acquired in positive scan mode (single ion reaction). Cone voltage was set at 10 V and the dwell time was 1 second.
Metabolic stability was expressed as % metabolism of the compound after 60 minutes (equation given as example) of incubation in the presence of active microsomes (E(act))

T1 sequence (Q13639 whole entry): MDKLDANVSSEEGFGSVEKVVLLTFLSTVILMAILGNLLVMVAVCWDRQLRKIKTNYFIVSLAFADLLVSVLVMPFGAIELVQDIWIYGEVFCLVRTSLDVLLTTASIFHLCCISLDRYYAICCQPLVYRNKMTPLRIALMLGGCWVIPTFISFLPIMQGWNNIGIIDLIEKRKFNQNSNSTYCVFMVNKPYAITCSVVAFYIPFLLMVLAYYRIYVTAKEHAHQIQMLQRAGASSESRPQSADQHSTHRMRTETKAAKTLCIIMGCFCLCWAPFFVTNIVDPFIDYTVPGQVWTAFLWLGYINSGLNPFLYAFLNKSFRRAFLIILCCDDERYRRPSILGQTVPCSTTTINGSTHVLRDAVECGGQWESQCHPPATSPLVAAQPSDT

Row | melting point | IC50 [1] | % metabolised compound (compounds of present invention) [2] | % metabolised compound (comparative structures of WO-00/37461) [2] | SMILES
1 | > 130 °C | – | – | – | CNCCCN1CC[C@@H](CNC(=O)c2cc(NC)cc3c2OCCCO3)[C@H](O)C1 (hydrate or solvate) [compound 81]
2 | – | 3.09 nM | 9% | – | COCCCN1CC[C@@H](CNC(=O)c2cc(C)cc3c2OCCCO3)[C@H](O)C1 (single isomer, unassigned) [compound 162]
3 | – | – | – | 79% | O=C(NC[C@@H]1CCN(CC2CCCO2)C[C@H]1O)c1cc(Cl)cc2c1OCCCO2 (stereo partly drawn) [WO-00/37461 Co. No. 122, reference compound]
4 | – | – | – | 49.5% | CC1(CCCN2CC[C@@H](CNC(=O)c3cc(Cl)cc4c3OCCCO4)[C@H](O)C2)OCCO1 [WO-00/37461 Co. No. 124, reference compound]
5 | – | – | – | 26% | O=C(NC[C@@H]1CCN(CCOCCO)C[C@H]1O)c1cc(Cl)cc2c1OCCCO2 [WO-00/37461 Co. No. 128, reference compound]
6 | – | – | – | 63% | O=C(NC[C@@H]1CCN(CCC2OCCO2)C[C@H]1O)c1cc(Cl)cc2c1OCCCO2 [WO-00/37461 Co. No. 143, reference compound]
7 | – | – | – | 11% | O=C(NC[C@@H]1CCN(CCCO)C[C@H]1O)c1cc(Cl)cc2c1OCCCO2 [WO-00/37461 Co. No. 144, reference compound]
8 | – | – | – | 23% | O=C(NC[C@@H]1CCN(CCCCO)C[C@H]1O)c1cc(Cl)cc2c1OCCCO2 [WO-00/37461 Co. No. 160, reference compound]
9 | 174 °C | 49 nM | – | – | COCCCCN1CC[C@@H](CNC(=O)c2cc(N)cc3c2OCCCO3)[C@H](O)C1 [compound 1]
10 | 150 °C | 525 nM | – | – | CNc1cc2c(c(C(=O)NC[C@@H]3CCN(CCCO)C[C@H]3O)c1)OCCCO2 [compound 2]
11 | > 110 °C | 5.75 nM | – | – | CCCCN1CC[C@@H](CNC(=O)c2cc(N)c(Cl)c3c2OCCO3)[C@H](O)C1 [compound 11]
12 | 240 °C | 617 nM | – | – | CNc1cc2c(c(C(=O)NC[C@@H]3CCN(CCCC(=O)O)C[C@H]3O)c1)OCCO2 [compound 16]
13 | 106 to 108 °C | 19.1 nM | – | – | CNc1cc(C(=O)NC[C@@H]2CCN(CCCOC)C[C@H]2O)c2c(c1Cl)OCCO2 [compound 26]
14 | 135 °C | 186 nM | – | – | CNc1cc2c(c(C(=O)NC[C@@H]3CCN(CCOC)C[C@H]3O)c1)OCCCO2 [compound 33]
15 | 130 °C | 22.9 nM | – | – | CC(=O)CCCN1CC[C@@H](CNC(=O)c2cc(N)c(Cl)c3c2OCCO3)[C@H](O)C1 [compound 44]
16 | 180 °C | 69.2 nM | – | – | CS(=O)(=O)NCCN1CC[C@@H](CNC(=O)c2cc(N)c(Cl)c3c2OCCO3)[C@H](O)C1 [compound 63]
17 | 100 °C | 30.2 nM | – | – | Cc1nccnc1NCCN1CC[C@@H](CNC(=O)c2cc(N)c(Cl)c3c2OCCO3)[C@H](O)C1 [compound 68]
18 | – | 12.9 nM | 4% | – | COCCCN1CC[C@@H](CNC(=O)c2cc(OC)cc3c2OCCCO3)[C@H](O)C1 [compound 87]
19 | > 160 °C | 5.5 nM | – | – | CCCCN1CC[C@@H](CNC(=O)c2cc(N)cc3c2OCCO3)[C@H](O)C1 [compound 107]
20 | 126 °C | 126 nM | – | – | CNc1cc2c(c(C(=O)NC[C@@H]3CCN(CCCOC)C[C@H]3O)c1)OCCCO2 [compound 113]
21 | – | 16.2 nM | 6% | – | COCc1cc2c(c(C(=O)NC[C@@H]3CCN(CC4CCCO4)C[C@H]3O)c1)OCCCO2 (stereo partly drawn) [compound 125]
22 | – | 10.2 nM | 5% | – | COCCCN1CC[C@@H](CNC(=O)c2cc(C#N)cc3c2OCCCO3)[C@H](O)C1 [compound 158]

Row | melting point | IC50 [1] | % metabolised compound (compounds of present invention) [2] | % metabolised compound (comparative structures of WO-00/37461) [2] | SMILES
23 | – | 5.01 nM | 22% | – | CCCCN1CC[C@@H](CNC(=O)c2cc(C#N)cc3c2OCCCO3)[C@H](O)C1 [compound 159]
24 | – | 2.29 nM | 11% | – | Cc1cc2c(c(C(=O)NC[C@@H]3CCN(CCC4OCCO4)C[C@H]3O)c1)OCCCO2 [compound 163]
25 | – | 15.8 nM | 1% | – | N#Cc1cc2c(c(C(=O)NC[C@@H]3CCN(CCCO)C[C@H]3O)c1)OCCCO2 [compound 165]
26 | – | 2 nM | 4% | – | Cc1cc2c(c(C(=O)NC[C@@H]3CCN(CCCO)C[C@H]3O)c1)OCCCO2 [compound 168]
27 | – | 108 nM | 4% | – | CCNc1cc2c(c(C(=O)NC[C@@H]3CCN(CCCOC)C[C@H]3O)c1)OCCCO2 [compound 177]
28 | – | 3.47 nM | 10% | – | CCCCN1CC[C@@H](CNC(=O)c2cc(CC#N)cc3c2OCCCO3)[C@H](O)C1 [compound 183]
29 | – | 20 nM | 12% | – | COCCCCN1CC[C@@H](CNC(=O)c2cc(CC#N)cc3c2OCCCO3)[C@H](O)C1 [compound 184]
30 | – | 19.5 nM | 3% | – | COc1cc2c(c(C(=O)NC[C@@H]3CCN(CCCO)C[C@H]3O)c1)OCCCO2 [compound 185]
31 | – | 5.01 nM | 0% | – | Cc1cc2c(c(C(=O)NC[C@@H]3CCN(CC4CCCO4)C[C@H]3O)c1)OCCCO2 (stereo partly drawn) [compound 186]
32 | – | 11.5 nM | 18% | – | COc1cc2c(c(C(=O)NC[C@@H]3CCN(CCC4OCCO4)C[C@H]3O)c1)OCCCO2 [compound 187]
33 | 134 °C | 1.69 nM | – | – | Cc1cc2c(c(C(=O)NC[C@@H]3CCN(CCCCNS(C)(=O)=O)C[C@H]3O)c1)OCCCO2 [compound 193]
34 | 136 °C | – | – | – | Cc1cc2c(c(C(=O)NC[C@@H]3CCN(CCCC(N)=O)C[C@H]3O)c1)OCCCO2 [compound 197]
35 | – | 4.37 nM | 8% | – | COCCCN1CC[C@@H](CNC(=O)c2cc(C#N)cc3c2OCCCO3)[C@H](O)C1 [compound 202]
36 | – | 2.95 nM | 13% | – | Cc1cc2c(c(C(=O)NC[C@@H]3CCN(CCOCCO)C[C@H]3O)c1)OCCCO2 [compound 211]
37 | – | 0.759 nM | 14% | – | Cc1cc2c(c(C(=O)NC[C@@H]3CCN(CCCCO)C[C@H]3O)c1)OCCCO2 [compound 225]
38 | – | 0.501 nM | 24% | – | Cc1cc2c(c(C(=O)NC[C@@H]3CCN(CCCC4(C)OCCO4)C[C@H]3O)c1)OCCCO2 [compound 227]
39 | – | 0.398 nM | 6% | – | Cc1cc2c(c(C(=O)NC[C@@H]3CCN(CCCCO)C[C@H]3O)c1)OCCO2 [compound 228]
40 | – | 0.55 nM | 12% | – | CC(=O)CCCN1CC[C@@H](CNC(=O)c2cc(C)cc3c2OCCCO3)[C@H](O)C1 [compound 229]
41 | > 112 °C | 0.851 nM | – | – | Cc1cc2c(c(C(=O)NC[C@@H]3CCN(CCCC(=O)N4CCN(C)CC4)C[C@H]3O)c1)OCCCO2 [compound 238]
42 | – | 12.6 nM | 7% | – | N#CCCCN1CC[C@@H](CNC(=O)c2cc(C#N)cc3c2OCCO3)[C@H](O)C1 [compound 246]
43 | – | 3.98 nM | 12% | – | COCCCN1CC[C@@H](CNC(=O)c2cc(C#N)cc3c2OCCO3)[C@H](O)C1 [compound 247]
